According to patent US11236088B2, “Heterocyclic compounds and their application in medicine” (KIND PHARMACEUTICAL, priority 2017, dated 2022):

Test system: MCF-7 cells
Test: Inhibitory effect on the growth of MCF-7 cells (CellTiter-Glo, 10 days)
Format: cell-based
Conditions: Homo sapiens, MCF7, 240 h, 10 days incubation, CellTiter-Glo chemiluminescence
Protocol: Assay 2: Inhibitory effect of compounds of the present invention on the growth of MCF-7 cells by a cell drug inhibition experiment
1. Experimental Materials
1) Reagents: DMEM high glucose medium (Lonza #12-604F), FBS (BI #04-00F1ACS), antibiotics (Thermofisher #15070063), bovine insulin (Western reagent #11070-73-8), trypsin (Thermofisher #25200-056), CellTiter-Glo reagent (Promega #G7571)
2) Instruments: American MD-M5 microplate reader 5;
2. Experimental Procedures:
1) 100 μl of MCF-7 cells was added to a medium in a white opaque 96-well plate at a density of 5000 cells/ml in which the medium is DMEM high-glucose medium supplemented with 10% FBS. The cells were cultured in a 5% CO2 cell incubator at 37° C. for 24 hours.
2) Different concentrations of corresponding compounds were added to the 96-well plate for incubating MCF-7 cells. The cells were incubated for 10 days in a 5% CO2 cell incubator.
3) To each well of MCF-7 cells, 100 μl of CellTiter-Glo reagent was added and then set aside at room temperature for 10 minutes. The chemiluminescence signal was read using an MD-M5 microplate reader, and the data was processed using GraphPad Prism to calculate IC50 value.

Structure (SMILES)	IC50 [nM]
CC(C)C[C@H]1[C@H](c2ccc(NC3CN(CCCF)C3)cc2)c2ccc3[nH]ncc3c2CN1C [Example 1, 1-(3-fluoropropyl)-N-(4-((6R, 7S)-7-isobutyl-8-methyl-6,7,8,9-tetrahydro-3H-pyrazolo [3,4-h]isoquinolin-6-yl)phenyl)azetidin-3-amine]	1 to 10
CC(C)C[C@H]1[C@H](c2c(F)cc(NC3CN(CC(F)CF)C3)cc2F)c2ccc3[nH]ncc3c2CN1C (stereo partly drawn) [Example 3, N-(3,5-difluoro-4-((6S, 7S)-7-isobutyl-8-methyl-6,7,8,9-tetrahydro-3H-pyrazolo [3,4-h]isoquinolin-6-yl)phenyl)-1-(2,3-difluoropropyl) azetidin-3-amine]	> 1000
CN1Cc2c(ccc3[nH]ncc23)[C@@H](c2c(F)cc(NC3CN(CCCF)C3)cc2F)[C@@H]1CC1CC1 [Example 5, N-(4-((6S, 7S)-7-cyclopropylmethyl-8-methyl-6,7,8,9-tetrahydro-3H-pyrazolo [3,4-h]isoquinolin-6-yl)-3,5-difluorophenyl)-1-(3-fluoropropyl) azetidin-3-amine]	> 1000
CCCN1CC(Nc2cc(F)c([C@@H]3c4ccc5[nH]ncc5c4CN(C)[C@H]3CC(C)C)c(F)c2)C1 [Example 6, N-(3,5-difluoro-4-((6S, 7S)-7-isobutyl-8-methyl-6,7,8,9-tetrahydro-3H-pyrazolo [3,4-h]isoquinolin-6-yl)phenyl)-1-propylazetidin-3-amine]	> 1000
CCCCN1CC(Nc2cc(F)c([C@@H]3c4ccc5[nH]ncc5c4CN(C)[C@H]3CC(C)C)c(F)c2)C1 [Example 7, 1-butyl-N-(3,5-difluoro-4-((6S, 7S)-7-isobutyl-8-methyl-6,7,8,9-tetrahydro-3H-pyrazolo [3,4-h]isoquinolin-6-yl)phenyl) azetidin-3-amine]	> 1000
CC(C)C[C@H]1[C@H](c2c(F)cc(NC3CN(CC(C)C)C3)cc2F)c2ccc3[nH]ncc3c2CN1C [Example 8, N-(3,5-difluoro-4-((6S, 7S)-7-isobutyl-8-methyl-6,7,8,9-tetrahydro-3H-pyrazolo [3,4-h]isoquinolin-6-yl)phenyl)-1-isobutylazetidin-3-amine]	> 1000
CCCCCN1CC(Nc2cc(F)c([C@@H]3c4ccc5[nH]ncc5c4CN(C)[C@H]3CC(C)C)c(F)c2)C1 [Example 9, N-(3,5-difluoro-4-((6S, 7S)-7-isobutyl-8-methyl-6,7,8,9-tetrahydro-3H-pyrazolo [3,4-h]isoquinolin-6-yl)phenyl)-1-pentylazetidin-3-amine]	> 1000
CCCN1CC(Sc2cc(F)c([C@@H]3c4ccc5[nH]ncc5c4CN(C)[C@H]3CC(C)C)c(F)c2)C1 [Example 11]	≤ 1
CC(C)C[C@H]1[C@H](c2c(F)cc(SC3CN(CC(C)C)C3)cc2F)c2ccc3[nH]ncc3c2CN1C [Example 13, (6S, 7S)-6-(2,6-difluoro-4-((1-isobutylazetidin-3-yl)thio)phenyl)-7-isobutyl-8-methyl-6,7,8,9-tetrahydro-3H-pyrazolo [3,4-h]isoquinoline]	10 to 1000
CCCCCN1CC(Sc2cc(F)c([C@@H]3c4ccc5[nH]ncc5c4CN(C)[C@H]3CC(C)C)c(F)c2)C1 [Example 14, (6S, 7S)-6-(2,6-difluoro-4-((1-pentylazetidin-3-yl)thio)phenyl)-7-isobutyl-8-methyl-6,7,8,9-tetrahydro-3H-pyrazolo [3,4-h]isoquinoline]	> 1000
CC(C)C[C@H]1[C@H](c2c(F)cc(OC3CN(CCCF)C3)cc2F)c2ccc3[nH]ncc3c2CN1C [Example 15, (6S, 7S)-6-(2,6-difluoro-4-((1-(3-fluoropropyl)azetidin-3-yl)oxy)phenyl)-7-isobutyl-8-methyl-6,7,8,9-tetrahydro-3H-pyrazolo [3,4-h]isoquinoline]	≤ 1
CCCN1CC(Oc2cc(F)c([C@@H]3c4ccc5[nH]ncc5c4CN(C)[C@H]3CC(C)C)c(F)c2)C1 [Example 16, (6S, 7S)-6-(2,6-difluoro-4-((1-propylazetidin-3-yl)oxy)phenyl)-7-isobutyl-8-methyl-6,7,8,9-tetrahydro-3H-pyrazolo [3,4-h]isoquinoline]	≤ 1
CC(C)C[C@H]1[C@H](c2c(F)cc(OC3CN(CC(C)C)C3)cc2F)c2ccc3[nH]ncc3c2CN1C [Example 17, (6S, 7S)-6-(2,6-difluoro-4-((1-isobutylazetidin-3-yl)oxy)phenyl)-7-isobutyl-8-methyl-6,7,8,9-tetrahydro-3H-pyrazolo [3,4-h]isoquinoline]	1 to 10
CCCCN1CC(Oc2cc(F)c([C@@H]3c4ccc5[nH]ncc5c4CN(C)[C@H]3CC(C)C)c(F)c2)C1 [Example 18]	> 1000
CCCN1CC(Oc2cc(F)c([C@@H]3c4ccc5[nH]ncc5c4CN(C)[C@H]3CC3CC3)c(F)c2)C1 [Example 21, (6S, 7S)-7-cyclopropylmethyl-6-(2,6-difluoro-4-((1-propylazetidin-3-yl)oxy)phenyl)-8-methyl-6,7,8,9-tetrahydro-3H-pyrazolo [3,4-h]isoquinoline]	> 1000
CC(C)CN1CC(Oc2cc(F)c([C@@H]3c4ccc5[nH]ncc5c4CN(C)[C@H]3CC3CC3)c(F)c2)C1 [Example 22, (6S, 7S)-7-cyclopropylmethyl-6-(2,6-difluoro-4-((1-isobutylazetidin-3-yl)oxy)phenyl)-8-methyl-6,7,8,9-tetrahydro-3H-pyrazolo [3,4-h]isoquinoline]	> 1000
CCCCN1CC(Oc2cc(F)c([C@@H]3c4ccc5[nH]ncc5c4CN(C)[C@H]3CC3CC3)c(F)c2)C1 [Example 23, (6S, 7S)-6-(4-((1-butylazetidin-3-yl)oxy)-2,6-difluorophenyl)-7-cyclopropylmethyl-8-methyl-6,7,8,9-tetrahydro-3H-pyrazolo [3,4-h]isoquinoline]	> 1000
CCCCCN1CC(Oc2cc(F)c([C@@H]3c4ccc5[nH]ncc5c4CN(C)[C@H]3CC3CC3)c(F)c2)C1 [Example 24, (6S, 7S)-7-cyclopropylmethyl-6-(2,6-difluoro-4-((1-pentylazetidin-3-yl)oxy)phenyl)-8-methyl-6,7,8,9-tetrahydro-3H-pyrazolo [3,4-h]isoquinoline]	> 1000

More lines, now with the values ahead:

IC50 [nM]	Structure (SMILES)
≤ 1	CC(C)C[C@H]1[C@H](c2c(F)cc(NC3CN(CCCF)C3)cc2F)c2ccc3[nH]ncc3c2CN1C [Example 2, N-(3,5-difluoro-4-((6S, 7S)-7-isobutyl-8-methyl-6,7,8,9-tetrahydro-3H-pyrazolo [3,4-h]isoquinolin-6-yl)phenyl)-1-(3-fluoropropyl) azetidin-3-amine]
> 1000	CC(C)C[C@H]1[C@H](c2c(F)cc(NC3CN(CCC(F)(F)F)C3)cc2F)c2ccc3[nH]ncc3c2CN1C [Example 4, N-(3,5-difluoro-4-((6S, 7S)-7-isobutyl-8-methyl-6,7,8,9-tetrahydro-3H-pyrazolo [3,4-h]isoquinolin-6-yl)phenyl)-1-(3,3,3-trifluoropropyl) azetidin-3-amine]
≤ 1	CC(C)C[C@H]1[C@H](c2c(F)cc(SC3CN(CCCF)C3)cc2F)c2ccc3[nH]ncc3c2CN1C [Example 10, (6S, 7S)-6-(2,6-difluoro-4-((1-(3-fluoropropyl)azetidin-3-yl)thio)phenyl)-7-isobutyl-8-methyl-6,7,8,9-tetrahydro-3H-pyrazolo [3,4-h]isoquinoline]
10 to 1000	CCCCN1CC(Sc2cc(F)c([C@@H]3c4ccc5[nH]ncc5c4CN(C)[C@H]3CC(C)C)c(F)c2)C1 [Example 12, (6S, 7S)-6-(4-((1-butylazetidin-3-yl)thio)-2,6-difluorophenyl)-7-isobutyl-8-methyl-6,7,8,9-tetrahydro-3H-pyrazolo [3,4-h]isoquinoline]
> 1000	CCCCCN1CC(Oc2cc(F)c([C@@H]3c4ccc5[nH]ncc5c4CN(C)[C@H]3CC(C)C)c(F)c2)C1 [Example 19]
> 1000	CN1Cc2c(ccc3[nH]ncc23)[C@@H](c2c(F)cc(OC3CN(CCCF)C3)cc2F)[C@@H]1CC1CC1 [Example 20, (6S, 7S)-7-(cyclopropylmethyl)-6-(2,6-difluoro-4-((1-(3-fluoropropyl)azetidin-3-yl)oxy)phenyl)-8-methyl-6,7,8,9-tetrahydro-3H-pyrazolo [3,4-h]isoquinoline]
10 to 1000	CN1Cc2c(ccc3[nH]ncc23)[C@@H](c2c(F)cc(SC3CN(CCCF)C3)cc2F)[C@@H]1CC1CC1 [Example 25]
10 to 1000	CCCN1CC(Sc2cc(F)c([C@@H]3c4ccc5[nH]ncc5c4CN(C)[C@H]3CC3CC3)c(F)c2)C1 [Example 26, (6S, 7S)-7-cyclopropylmethyl-6-(2,6-difluoro-4-((1-propylazetidin-3-yl)thio)phenyl)-8-methyl-6,7,8,9-tetrahydro-3H-pyrazolo [3,4-h]isoquinoline]
> 1000	CCCCN1CC(Sc2cc(F)c([C@@H]3c4ccc5[nH]ncc5c4CN(C)[C@H]3CC3CC3)c(F)c2)C1 [Example 27, (6S, 7S)-6-(4-((1-butylazetidin-3-yl)thio)-2,6-difluorophenyl)-7-cyclopropylmethyl-8-methyl-6,7,8,9-tetrahydro-3H-pyrazolo [3,4-h]isoquinoline]
> 1000	CC(C)CN1CC(Sc2cc(F)c([C@@H]3c4ccc5[nH]ncc5c4CN(C)[C@H]3CC3CC3)c(F)c2)C1 [Example 28, (6S, 7S)-6-(4-((1-isobutylazetidin-3-yl)thio)-2,6-difluorophenyl)-7-cyclopropylmethyl-8-methyl-6,7,8,9-tetrahydro-3H-pyrazolo [3,4-h]isoquinoline]
